Values of other authors in patent publication US20220387443A1, “RESPIRATORY SYNCYTIAL VIRUS FUSION PROTEIN INHIBITOR COMPOSITIONS AND METHODS FOR THE TREATMENT AND PROPHYLAXIS OF RSV DISEASES USING THE SAME” (priority 2019, published 2022).

Legend:
[1] = tested on: RSV; settings: human RSV viral challenge studies
[2] = tested on: RSV infection; settings: selected infants, intramuscularly 15 mg/kg once a month for the duration of RSV season

Compound | reduction of viral load [1] [log 10] | reduction of hospitalization rate caused by RSV infection [2]
Cc1cn2nc([C@@H]3CCCCN3C(=O)c3cc(Cl)ccc3NS(C)(=O)=O)cc2nc1N1CC[C@H](N)C1 [GS-5806] | 4.2 | –
palivizumab: humanized monoclonal antibody against RSV fusion (F) protein | – | 45-55%
